Earlier results in US20100183693A1 (priority 2005, published 2010).
Entries after “also recorded” stand apart in the source; their conditions may differ. Where two headings read alike, the source gives them in different places.

Row | SMILES | Effectiveness of Biocides (rank order) (pH 6.8) | Effectiveness of Biocides (rank order) (pH 8)
1 | [Na+].[O-]Cl [NaOCl] | Cl2 < NaOCl < HOCl + NaBr < ClO2 <; also recorded: NaOCl < ozone | NaOCl < ozone
2 | [O][Cl+][O-] [ClO2, chlorine dioxide] | Cl2 < NaOCl < HOCl + NaBr < ClO2 <; also recorded: ClO2 < HOCl + NaBr < BCDMH < Cl2 < | HOCl + NaBr < ClO2 < BCDMH < Cl2 <
3 | O=[O+][O-] [Sample O3, ozone] | BCDMH < ozone; also recorded: NaOCl < ozone | NaOCl < ozone
4 | CC1(C)C(=O)N(Cl)C(=O)N1Br [BCDMH, bromo-chlorodimethyl hydantoin] | BCDMH < ozone; also recorded: ClO2 < HOCl + NaBr < BCDMH < Cl2 < | HOCl + NaBr < ClO2 < BCDMH < Cl2 <
